Laboratory results reported in US7312306B2, “Substituted heterocyclic acyl-tripeptides useful as thrombin receptor modulators” (Ortho-McNeil Pharmaceutical, Inc., priority 1998, dated 2007).
Like-named read-outs stand apart in the source and are kept apart here. Starred links: 1 amine or outer side, 2 acyl side, 3 side chain; linkers in the order of their positions; H or OH if unused. Non-standard residues stand in square brackets, D forms with d. Residues, ends and D or L forms follow the SMILES beside them. ξ: configuration not given here. Triazole(1,2,4-3-CO,5-NH) = O=C(c1n[nH]c(N[*:1])n1)[*:2]; Phe(4-F) = N[CH](Cc1ccc(F)cc1)C(=O)O; ξNip = O=C(C1CCCN([*:1])C1)[*:2]; Cha = N[CH](CC1CCCCC1)C(=O)O

How the values were obtained:
platelet aggregation = assay: In vitro agonist platelet aggregation assay (gel-filtered platelets); type: cell-based, Human
Experimental: (§1) In Vitro Agonist Platelet Aggregation Assay/Inhibition of Thrombin-induced Gel-filtered Platelet Aggregation Assay
(§2) The percentage of platelet aggregation is calculated as an increase in light transmission of compound-treated platelet concentrate vs. control-treated platelet concentrate. Human blood is obtained from drug free, normal donors into tubes containing 0.13 M sodium citrate. Platelet rich plasma (PRP) is collected by centrifugation of whole blood at 200×g for 10 min at 25° C. The PRP (5 mL) is gel filtered through Sepharose 2B (bed volume 50 mL), and the platelet count is adjusted to 2×10^7 platelets per sample. The following constituents are added to a siliconized cuvette: concentrated platelet filtrate and Tyrode's buffer (0.14 M NaCl, 0.0027 M KCl, 0.012 M NaHCO3, 0.76 mM Na2HPO4, 0.0055 M glucose, 2 mg/mL BSA and 5.0 mM HEPES @ pH 7.4) in an amount equal to 350 l, 50 l of 20 mM calcium and 50 l of the test compound. Aggregation is monitored in a BIODATA aggregometer for the 3 min following the addition of agonist (thrombin 50 l of 1 unit/mL).

[1] = system: gel-filtered platelets aggregation induced by thrombin; assay: Inhibition of thrombin-induced gel-filtered platelet aggregation assay; type: cell-based; details: Homo sapiens
Experimental: as §1, §2

[2] = agonist activity, human gel-filtered platelets, Table 1, read-out: EC50 (M), EC50 values for platelet aggregation
[3] = Homo sapiens, read-out: EC50 (M), EC50 values for platelet aggregation
[4] = gel-filtered platelets aggregation induced by thrombin, Table 2, read-out: IC50 (M), inhibition of platelet aggregation

Row | Compound | EC50 (platelet aggregation; [2]) [M] | IC50 [1, 4] [M] | also measured
1 | N=C(N)NCCC[C@H](NC(=O)[C@H](CC1CCCCC1)NC(=O)c1n[nH]c(N)n1)C(=O)N[C@@H](Cc1ccccc1)C(N)=O [Compound 1] | 7.5e-07 | – | –
2 | N=C(N)NCCCC(NC(=O)C(Cc1ccccc1)NC(=O)C(CCCNC(=N)N)NC(=O)C(CC1CCCCC1)NC(=O)c1n[nH]c(N)n1)C(N)=O (centres unmarked) [Compound 9] ({Triazole(1,2,4-3-CO,5-NH)}-[Cha]RFR-NH2; configuration not given here) | – | – | EC50 (platelet aggregation; [3]): 1.21e-06 M
3 | N=C(N)NCCCC(NC(=O)C(CC1CCCCC1)NC(=O)c1n[nH]c(NC(=O)C=Cc2ccc(F)cc2)n1)C(=O)NC(Cc1ccccc1)C(N)=O (centres unmarked) [Compound 26] | – | – | EC50 (platelet aggregation; [3]): 7.9e-06 M; IC50 ([1]; read-out: IC50 (M), inhibition of platelet aggregation): 1.3e-05 M
4 | N=C(N)NCCCC(NC(=O)C(CC1CCCCC1)NC(=O)C1CCCN(C(=O)C(N)Cc2ccc(F)cc2)C1)C(=O)NC(Cc1ccccc1)C(N)=O (centres unmarked) [Compound 32] (H-[Phe(4-F)][ξNip][Cha]RF-NH2; configuration not given here) | 2.6e-05 | – | –
5 | N=C(N)NCCCC(NC(=O)C(CC1CCCCC1)NC(=O)c1n[nH]c(NC(=O)C(=Cc2ccccc2)c2ccccc2)n1)C(=O)NC(Cc1ccccc1)C(N)=O (centres unmarked) [Compound 34] | – | 1.9e-05 | –
6 | N=C(N)NCCC[C@H](NC(=O)[C@H](CC1CCCCC1)NC(=O)c1cc2ccccc2s1)C(=O)N[C@@H](Cc1ccccc1)C(N)=O [Compound 37] | – | 2.1e-05 | –
7 | N=C(N)NCCC[C@H](NC(=O)[C@H](CC1CCCCC1)NC(=O)c1ccc2[nH]cnc2c1)C(=O)N[C@@H](Cc1ccccc1)C(N)=O [Compound 41] | 4e-06 | – | –

Further lines, with some results ahead:

Row | EC50 (platelet aggregation; [2]) [M] | IC50 [1, 4] [M] | Compound | also measured
8 | 1.72e-06 | – | N=C(N)NCCCC(NC(=O)C(CC1CCCCC1)NC(=O)c1n[nH]c(NC(=O)C(F)=Cc2ccccc2)n1)C(=O)NC(Cc1ccccc1)C(N)=O (centres unmarked) [Compound 12] | –
9 | – | 8.4e-06 | Cc1c(S(=O)(=O)N[C@@H](CC2CCCCC2)C(=O)N[C@@H](CCCNC(=N)N)C(=O)N[C@@H](Cc2ccccc2)C(N)=O)sc2ccc(Cl)cc12 [Compound 36] | –
10 | – | 1.25e-05 | N=C(N)NCCC[C@H](NC(=O)[C@H](CC1CCCCC1)NS(=O)(=O)c1ccc2ccccc2c1)C(=O)N[C@@H](Cc1ccccc1)C(N)=O [Compound 43] | –
